Patent US8633251B2, “Derivatives of aminoalkanols, method of obtaining of aminoalkanols and their use” (Uniwersytet Jagiellonski, priority 2008, dated 2014)

Tests used:
neurotoxicity (rotarod) = experiment: Neurotoxicity test (TOX), rotarod, mice; type: in vivo
Protocol: (§1) In order to define anticonvulsant activity, screening tests were performed, using animal models of seizures. […] Each substance (after dissolving in methylcellulose) was normally tested in doses 30, 100, and 300 mg/kg body weight (b.w.) (mice) or in 30 and 50 mg/kg b.w. (rats) in two possible routes of administration: intraperitoneal (i.p.) or oral (p.o.). Appropriate tests were performed 0.5 and 4 h after administration of the compound. […] (mice) the tests were also performed in doses 10 and 3 mg/kg b.w.
It is performed with use of rotarod test. The animal is placed on a plastic rod (1 inch in diameter), rotating 6 rpm. The rod is placed on a level discouraging the animal to jump off. […] Neurotoxicity is stated if the animal cannot stay on the rod for 1 min. in any of 3 trials. Normally the test is performed in dose 30 mg/kg b.w. in 4 mice (0.5 h) and in 2 mice (4 h), in the dose 100 mg/kg b.w. in 8 mice (0.5 h) and in 4 mice (4 h) and in the dose 300 mg/kg b.w. in 4 mice (0.5 h) and 2 mice (4 h).

[1] = test system: maximal electroshock seizures; experiment: Maximum Electroshock Seizure (MES) test, mice; type: in vivo; details: mice, time 0.5 h
Protocol: as §1
Maximum Electroshock Seizure (MES) test is an electric test, verifying activity towards generalized tonic-clonic seizures (grand mal epilepsy). […] Its procedure consists in administration to an animal a mentioned dose, and after 0.5 or 4 h attaching corneal electrodes (after anesthetic eye-drops: 0.5% tetracaine hydrochloride in 0.9% NaCl) and turning on electric current (60 Hz, 0.2 s, 50 mA (mice) or 150 mA (rats)). […] Normally, in the dose 30 mg/kg b.w. the test is done in 1 mouse after 0.5 or 4 h, in the dose 100 mg/kg b.w.—in 3 mice, and in the dose 300 mg/kg b.w.—in 1 mouse.

[2] = mice, dose 300 mg/kg b.w., 0.5 h
[3] = mice, dose 100 mg/kg b.w., time 0.5 h
[4] = mice, dose 300 mg/kg b.w., time 0.5 h

SMILES	TOX, No. of animals exhibiting motor impairment/no. of used animals (neurotoxicity (rotarod); [2])	MES, No. of protected animals/No. of used animals ([1]; dose 100 mg/kg b.w.)	TOX, No. of animals exhibiting motor impairment/no. of used animals (neurotoxicity (rotarod); [3])	TOX, No. of animals exhibiting motor impairment/no. of used animals (neurotoxicity (rotarod); [4])	also measured
CCC(NC(=O)COc1c(C)cccc1Cl)C(N)=O (racemic) [Compound 78, D,L-2N-[(2-chlor-6-methylphenoxy)acetyl]aminobutyramide]	1/4				
Cc1cccc(C)c1OCCN[C@@H]1CCCC[C@H]1O (relative stereo) [Compound 18, D,L-trans-2N-[(2,6-dimethylphenoxy)ethyl]amino-1-cyclohexanol]		3/3	7/8	4/4	
Cc1cccc(Cl)c1OCCN[C@@H]1CCCC[C@H]1O (relative stereo) [Compound 30, D,L-trans-2N-[(2-chlor-6-methylphenoxy)ethyl]amino-1-cyclohexanol]		1/1	8/8	4/4	MES, No. of protected animals/No. of used animals ([1]; dose 30 mg/kg b.w.): 1/1
Cc1cc(C)c(OCCN[C@@H]2CCCC[C@H]2O)c(C)c1 (relative stereo) [Compound 44, D,L-trans-2N-[(2,4,6-trimethylphenoxy)ethyl]amino-1-cyclohexanol]			8/8		MES, No. of protected animals/No. of used animals ([1]; dose 10 mg/kg b.w.): 1/4; MES, No. of protected animals/No. of used animals ([1]; dose 30 mg/kg b.w.): 1/1; TOX, No. of animals exhibiting motor impairment/no. of used animals (neurotoxicity (rotarod); mice, dose 10 mg/kg b.w., time 0.5 h): 1/4
CCC(CO)NCCOc1cccc(C)c1C (centres unmarked) [Compound 2, R,S-2N-[(2,3-dimethylphenoxy)ethyl]amino-1-butanol]		3/3			TOX, No. of animals exhibiting motor impairment/no. of used animals (neurotoxicity (rotarod); mouse, in vivo, 100 mg/kg): 8/8; TOX, No. of animals exhibiting motor impairment/no. of used animals (neurotoxicity (rotarod); mouse, in vivo, 300 mg/kg): 4/4
Cc1cccc(OCCNC(C)(C)CO)c1C [Compound 3, 2N-[(2,3-dimethylphenoxy)ethyl]amino-2-methyl-1-propanol]			7/8	4/4	responders at 100 mg/kg ([1]; Mus musculus, dose 100 mg/kg b.w., read-out: MES, No. of protected animals/No. of used animals (converted)): 66.7%
Cc1ccc(C)c(OCCNCC(C)O)c1 (centres unmarked) [Compound 5, R,S-1N-[(2,5-dimethylphenoxy)ethyl]amino-2-propanol]		3/3			TOX, No. of animals exhibiting motor impairment/no. of used animals (neurotoxicity (rotarod); mouse, in vivo, 300 mg/kg): 4/4
Cc1ccc(C)c(OCCNCC(O)c2ccccc2)c1 (centres unmarked) [Compound 9, R,S-2N-[(2,5-dimethylphenoxy)ethyl]amino-1-phenylethanol]			7/8	3/4	TOX, No. of animals exhibiting motor impairment/no. of used animals (neurotoxicity (rotarod); mice, dose 300 mg/kg b.w., time 4 h): 1/2
Cc1cc(Cl)ccc1OCCNCC(O)c1ccccc1 (centres unmarked) [Compound 37, R,S-2N-[(4-chlor-2-methylphenoxy)ethyl]amino-1-phenylethanol]				1/4	
Cc1cccc(Cl)c1OCC(=O)NCCCC(=O)O [Compound 79, 4N-[(2-chlor-6-methylphenoxy)acetyl]aminobutyric acid]	1/4				
Cc1cc(Cl)ccc1OCC(=O)NCC(O)c1ccccc1 (centres unmarked) [Compound 82, R,S-2N-[(4-chlor-2-methylphenoxy)acetyl]amino-1-phenylethanol]	4/4				TOX, No. of animals exhibiting motor impairment/no. of used animals (neurotoxicity (rotarod); mice, dose 100 mg/kg b.w., 0.5 h): 2/8; TOX, No. of animals exhibiting motor impairment/no. of used animals (neurotoxicity (rotarod); mice, dose 300 mg/kg b.w., 4 h): 1/2
Cc1cc(C)c(OCC(=O)NCC(O)c2ccccc2)c(C)c1 (centres unmarked) [Compound 83, R,S-2N-[(2,4,6-trimethylphenoxy)acetyl]amino-1-phenylethanol]	4/4				
